“Also recorded” adds a separate entry of the source. Bridges are numbered along the chain shown (N, C = ends).
Legend:
[1] = tested on: TrkA receptor; assay: NGF-dependent TrkA phosphorylation in PC12 cells, metal ions; assay type: cell-based, rat
Procedure: Zn^2+ and/or other additives were allowed to equilibrate with NGF for 2 hours at 4° C. prior to addition of cells. PC12 cells were used at 10^6 cells/ml and incubated with 40 pM NGF for 15 minutes at 37° C. At the conclusion of the reaction, cells were washed, lysed in TBS containing 10% glycerol, 1% Triton X-100, 1 mM PMSF, 10 μg/ml aprotinin, 1 μg/ml leupeptin and 500 μM orthovanadate (lysis buffer, 10^8 cells/ml). The cellular debris was removed by centrifugation and the soluble proteins incubated with an anti-TrkA cytoplasmic domain antibody. Antibody complexes were isolated by incubating with immobilized protein G (Pierce Ultralink; 70 μl of a 50% slurry) for 2 hours at 4° C. The solid phase was washed extensively with lysis buffer and the pellet dissolved in SDS sample buffer. Proteins were resolved using 6% SDS PAGE and Western analysis performed with anti-phosphotyrosine 4G10 (UBI) visualized with ECL (Amersham).

[2] = target: T1, NGF (Mus musculus, UniProt P01139); assay: NGF protomer crosslinking with BS3 (NGF conformation), metal ions; assay type: biochemical
T1 construct: homodimer

[3] = tested on: T2, TrkA; assay: Binding of 125I-NGF to TrkA on PC12 cells (p75NTR blocked with BDNF); set-up: species or system rat; conditions: 100 μM; in presence of 40 nM BDNF; ± SEM; 120 min
T2 construct: Receptor cross-linking studies were performed on PC12 rat pheochromocytoma cells; endogenous in cells; host or cells: PC12 rat pheochromocytoma cells (ATCC CRL 1721)
Procedure: PC12 cells were grown in RPMI with 10% heat inactivated donor horse serum and 5% fetal calf serum. […] The tubes were incubated for 2 hr at 4° C. and 100 μl aliquots (providing triplicate data points for each sample) were transferred to 400 μl microcentrifuges containing 200 μl of 10% glycerol in HKR. Tubes were centrifuged for 2 minutes at 5,000 rpm, the tip containing the cell pellet cut off and radioactivity bound to the cells was determined.

[4] = tested on: DRG neurons; assay: Survival of chick DRG neurons at 24 hours; assay type: cell-based; conditions: 500 μM
[5] = target: T2, TrkA; assay: Affinity cross-linking of 125I-NGF to TrkA on PC12 cells; assay type: binding, rat; conditions: 200 μM; result in words
Procedure: The ability of the peptides under study to interfere with binding of NGF to NGF receptors was evaluated by analysis of inhibition of the chemical cross-linking of ^251 I-NGF to the common neurotrophin receptor p75 (Chao, J. Neurobiol. 25:1373-1385 (1994)) and the specific NGF receptor TrkA (Barbacid, J. Neurobiol. 25: 1386-1403 (1994)). Immunoprecipitation and polyacrylamide gel electrphoresis of cross linked receptors allowed identification of both receptors, as shown in FIG. 7A. […] At concentrations of 200 μM, neither R11(l) nor R11(m) were able to inhibit greater than 50% of the observed ^125 I-labelling.
The ability of the peptides derived from the 68-58/108-110 region of NGF to antagonize NGF interaction with the p75 and TrkA receptors was determined The peptides tested were bicyclic (BC) 68-58/108-110, cyclic (C) 68-58/108-110, and linear (L) 68-58/108-110, each of which are illustrated in FIGS. 2 and 5D
Receptor cross-linking studies were performed on PC12 rat pheochromocytoma cells (ATCC CRL 1721; Greene et al., Proc. Natl. Acad. Sci. USA 73: 2424-2432 (1976)) which were maintained in RPMI1640 (Gibco) supplemented with 10% fetal calf serum (Gibco). […]

T1 sequence (P01139 122-239): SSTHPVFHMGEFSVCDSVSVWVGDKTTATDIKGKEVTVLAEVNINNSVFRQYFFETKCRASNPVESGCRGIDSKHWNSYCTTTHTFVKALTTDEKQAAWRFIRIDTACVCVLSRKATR
T2 sequence (P01139 122-239): as above

[Zn+2] [Zn^2+]
NGF-induced TrkA phosphorylation ([1]; 100 μM, PC12 cells): prevented phosphorylation | Basal TrkA phosphorylation ([1]; no NGF): no effect on basal TrkA phosphorylation | Crosslinking of 125I-NGF to larger complexes (BSA or ovalbumin) [2]: promoted | NGF monomer crosslinking by BS3 ([2]; 0.1 nM 125I-NGF, CaEDTA together with Zn2+): NGF monomer crosslinking was inhibited | NGF Protomer Conformation (active/inactive) ([2]; 100 μM): active | Crosslinking of NGF promoters after His modification (DEPC) ([2]; DEPC-modified NGF): not affected by Zn^2+; also recorded: abolished | steady-state specific binding of 125I-NGF (0.5 nM) to TrkA [3]: 19 ± 15 % Control

NH2 -Cys-Gly-Ser-Glu-Val-Pro-Asn-Ser-Ala-Arg-Cys-Cys-Val-Cys-OH (H-CGSEVPNSARCCVC-OH; disulfide 1-14, 11-12) [R11, bicyclic peptide of NGF residues 68-58/108-110, two disulfide bonds]
Survival of neurons at 24 hours [4]: not influenced | Covalent attachment of 125I-NGF to receptor (TrkA) [5]: effectively prevented the covalent attachment
